For this assay, the system named is proteasome. In kind it is cell-based.

Structures are written as SMILES. Peptide text beside a SMILES is read from it. * marks the point of attachment. Cbz = O=C(OCc1ccccc1)*

On to `CC(C)C[C@@H](C=O)NC(=O)[C@H](CC(C)C)NC(=O)[C@H](CC(C)C)NC(=O)OCc1ccccc1` [MG132] (Cbz-Leu-Leu-Leu-aldehyde), for which the “level of C-terminal (P9-luciferase) fragment produced by BoNT/A proteolysis” value is “accumulated”.

The values are drawn from US20150329896A1, “N-END RULE PROTEASE ACTIVITY […] AND USES THEREOF” (priority 2010, published 2015).
